Experiments:
[1] = tested on: human sense of taste; assay: Sugar-like taste quality enhancement of Stevia sweeteners by steviol glycoside additives, taste test by trained individual; assay type: in vivo; conditions: for Taste change of Stevia Sweetener REBA (303 ppm) with Steviol Glycoside Additive / Taste change of Stevia Sweetener JSS (380 ppm) with Steviol Glycoside Additive / Taste change of Stevia Sweetener REBD (303 ppm) with Steviol Glycoside Additive: additive at or below its sweetness recognition threshold concentration, 5% sucrose equivalence, water, room temperature; for Taste change of Stevia Sweetener REBA (303 ppm) with Steviol Glycoside Additive: 97% pure rebaudioside A 303 ppm; for Taste change of Stevia Sweetener REBD (303 ppm) with Steviol Glycoside Additive: rebaudioside D 303 ppm;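 for Taste change of Stevia Sweetener JSS (380 ppm) with Steviol Glycoside Additive: code −B means less bitterness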
Procedure: A steviol glycoside is added in an amount at or below sweetness recognition threshold concentration to a solution of water and a Stevia sweetener. The solution is maintained at room temperature. Each sample is taste tested by a trained individual, as described in Example 1, in duplicate. Preferably no more than ten steviol glycosides are tested per day to avoid taste fatigue. Each sample was taken at least 1.5 hours following eating or drinking
The Stevia sweeteners used in this study were 97% pure rebaudioside A, JSS, and rebaudioside D.
The steviol glycosides were used in at or below sweetness recognition threshold concentrations. […]

[2] = tested on: human sense of taste; assay: Determination of sweetness recognition threshold concentration by trained taste tester; assay type: in vivo; conditions: in water at room temperature
Procedure: The term “sweetness recognition threshold concentration,” as generally used herein, is the lowest known concentration of a sweet compound that is perceivable by the human sense of taste. The sweetness recognition threshold level is specific for a particular compound, and varies based on temperature, matrix, ingredients and/or flavor system. The sweetness recognition threshold concentrations measurements and 5% sucrose equivalence measurements described herein were determined in water at room temperature.
A sip (approximately 2-5 mL) of control sample, including but not limited to water, was tasted and swallowed by a trained taste tester. After allowing a 15-25 second interval to pass, a second sip of the control is tasted and swallowed. The taste properties of the control are determined and recorded by the trained taste tester. An unknown sample is then tasted and swallowed in the same manner, allowing a 15-25 second interval between the two sips. Preferably no more than ten additives are tested per day to avoid taste fatigue. Each sample was taken at least 1.5 hours following eating or drinking The sweetness recognition thresholds concentration of 21 steviol glycosides were determined in this manner, and are shown in Table 1.

Row | SMILES | sugar-like taste quality ([1]; additive at 250 ppm, rebaudioside A) | Taste change of Stevia Sweetener REBA (303 ppm) with Steviol Glycoside Additive [1] | Taste change of Stevia Sweetener JSS (380 ppm) with Steviol Glycoside Additive [1] | Taste change of Stevia Sweetener REBD (303 ppm) with Steviol Glycoside Additive [1] | sugar-like taste quality enhancement effect ([1]; mostly in 5% SE rebaudioside A, compared with compound 1) | minimal effective concentration ([2]; Homo sapiens, read-out: Sweetness recognition threshold Level) [µg/mL] | Sweetness recognition threshold Level [2] [ppm] | Sweetness recognition threshold Level ([2]; listed as rebaudioside A) | Sweetness recognition threshold Level ([2]; listed as rebaudioside D)
1 | C[C@@]12CCC[C@@](C)(C(=O)OC3OC(CO)C(O)C(O)C3O)[C@H]1CC[C@]13C=C(CO)[C@](OC4OC(CO)C(O)C(OC5OC(CO)C(O)C(O)C5O)C4OC4OC(CO)C(O)C(O)C4O)(CC[C@H]12)C3 (some centres unmarked) [Compound 5] | improve the sugar-like taste quality of rebaudioside A | +, −B, W | N (N: no difference in presence or absence of steviol glycoside additive;) | N (N: no difference in presence or absence of steviol glycoside additive;) | similar, but smaller positive sugar-like taste quality enhancement effect | 250 |  |  | 
2 | C=C1C[C@@]23CC[C@H]4[C@@](C)(CCC[C@@]4(C)C(=O)O[C@@H]4O[C@H](CO)[C@@H](O)[C@H](O)[C@H]4O)[C@@H]2CC[C@]1(O[C@@H]1O[C@H](CO)[C@@H](O)[C@H](O[C@@H]2O[C@H](CO)[C@@H](O)[C@H](O)[C@H]2O)[C@H]1O[C@@H]1O[C@H](CO)[C@@H](O)[C@H](O)[C@H]1O)C3 [Rebaudioside A, rebaudioside A] |  |  | N (N: no difference in presence or absence of steviol glycoside additive;) | N (N: no difference in presence or absence of steviol glycoside additive;) |  |  | 12.6 | about 12.6 ppm | 
3 | C=C1C[C@@]23CC[C@H]4[C@@](C)(CCC[C@@]4(C)C(=O)O[C@@H]4O[C@H](CO)[C@@H](O)[C@H](O)[C@H]4O[C@@H]4O[C@H](CO)[C@@H](O)[C@H](O)[C@H]4O)[C@@H]2CC[C@]1(O[C@@H]1O[C@H](CO)[C@@H](O)[C@H](O[C@@H]2O[C@H](CO)[C@@H](O)[C@H](O)[C@H]2O)[C@H]1O[C@@H]1O[C@H](CO)[C@@H](O)[C@H](O)[C@H]1O)C3 [Rebaudioside D, rebaudioside D] |  | N (N: no difference in presence or absence of steviol glycoside additive;) | N (N: no difference in presence or absence of steviol glycoside additive;) |  |  |  | 25 |  | about 25 ppm

From patent US20130064955A1, “NATURAL SWEETENED COMPOSITIONS AND METHODS FOR PREPARING THE SAME” (priority 2011, published 2013)
